{"source": "paper PMC9936496", "about": "“Azobenzene-Based Amino Acids for the Photocontrol of Coiled-Coil Peptides” (Bioconjugate Chemistry, 2023)", "key": {"E3GY": {"system": "E3GY", "test": "CD thermal unfolding curves fitted to a dimeric coiled-coil binding model", "settings": "coiled coil with E3GY; for Kf (folding constant) / Kd: binding model at 20 °C; for Kd: read-out: Ku (unfolding constant)", "procedure": "CD melting curves measured at different concentrations were fitted to a coiled-coil binding model (Figures S2 and S3).[39]\nCD spectra were recorded on a Jasco J-815 CD spectrometer fitted with a Peltier temperature controller. Spectra were recorded in a 2 mm quartz cuvette at 20 °C using either PBS or low-salt buffer (2 mM NaCl, 10 mM phosphate) at pH 7.4. Spectra were recorded between 190 and 280 nm with 1 nm intervals at a scan rate of 100 nm/min with five subsequent spectra averaged to minimize noise. […] Thermal melting curves were generated by recording θ222nm between 5 and 90 °C at a speed of 1 °C/min. If irradiated samples were used, samples were reilluminated every 30 min. Melting curves were measured at four different concentrations and fitted using the Fitdis software package.[39]"}, "[1]": {"type": "physicochemical", "settings": "K3-APgly in PBS versus 10 in MeCN", "procedure": "For the potential application of K3-APgly in an active system, for example, for membrane fusion, the stability of the photoswitch to repeated light exposures (photocycling) is required. […] Finally, the peptide was irradiated with the 340 nm PSS and allowed to thermally relax, showing 65% recovery in 69 h.\nFigure 4 Photocycling of K3-APgly between the dark-adapted, 340 and 435 nm PSS (left), thermal relaxation of the peptide after […] (middle) and distribution of the absorbance in the different states during cycling (right)."}, "[2]": {"test": "HPLC quantification of trans/cis isomer ratio at photostationary states", "type": "physicochemical", "settings": "measurements repeated three times", "procedure": "As azobenzene photoswitches based on phenylglycine are not known in the literature, the photoswitching behavior of Fmoc-APgly (10) was analyzed first in order to assess its suitability as a photoswitch (Figure 3A–C). […] The largest ratio of […]-to-cis isomers via photoisomerization was achieved through irradiation with 385 nm light (83.2 ± 0.2% […]), with higher wavelengths showing very similar distributions.\n(§1) Figure 3 HPLC analysis of the photoswitching behavior of Fmoc-APgly, and the effect of azobenzene isomerization in peptide K3-APgly. (A) Chromatography traces of Fmoc-APgly in the dark state and after irradiation with different wavelengths of light, complete traces can be found in Figure S5. (B) Thermal relaxation of Fmoc-APgly from cis to trans as followed by HPLC. (C) Percentage of the trans and cis isomers in solution at the different PSSs; error bars indicate difference in deviation between repeat samples. (D) UV–vis spectra showing the spectra of K3-APgly in the dark and after irradiation with 340 or 435 nm light. (E) CD spectra showing the effect of photoisomerization on the structure of K3-Apgly by itself and as a coiled-coil with E3GY. […] Illumination and relaxation studies of the amino acid were performed in MeCN at 20 °C. Peptide spectra were recorded at 20 °C in PBS with [peptide] = 50 μM. […]\n(§2) Analytical HPLC was performed using a Shimadzu Prominence-i LC-2030C 3D system fitted with a 4.6 × 50 mm Phenomenex Kinetex Evo C18 column. The isomeric ratio of 10 was quantified using a linear gradient of 10–90% MeCN in water containing 0.1% TFA as buffer. For each measurement, 2 μL of a 200 mM solution of 10 was injected, and measurements were repeated three times for accuracy."}, "[3]": {"test": "Thermal relaxation of Fmoc-APgly from cis to trans followed by HPLC", "type": "physicochemical", "settings": "after irradiation with 340 nm light, in MeCN at 20 °C", "from_the_text": "as §1, §2"}, "[4]": {"design": "method as in 2 sources, ref 29 = [29]; PMID 16287231; doi:10.1021/bc049724g; Nakayama K.; Endo M.; Majima T. A Hydrophilic Azobenzene-Bearing Amino Acid for Photochemical Control of a Restriction Enzyme BamHI . Bioconjugate Chem. 2005 , 16 , 1360 – 1366 . 10.1021/bc049724g . ||| ref 33 = [33]; PMID 31495713; doi:10.1016/j.chembiol.2019.08.006; Kneuttinger A. C.; Straub K.; Bittner P.; Simeth N. A.; Bruckmann A.; Busch F.; Rajendran C.; Hupfeld E.; Wysocki V. H.; Horinek D.; et al. Light Regulation of Enzyme Allostery through Photo", "settings": "cited from earlier work"}, "[5]": {"settings": "cited from earlier work"}, "[6]": {"settings": "340 nm irradiated state (predominantly cis)"}, "[7]": {"settings": "dark state (predominantly trans)"}}, "note": "Read-outs that look alike come from different tables or passages of the source. Starred links: 1 amine or outer side, 2 acyl side, 3 side chain; linkers in the order of their positions; H or OH if unused. Non-standard residues stand in square brackets, D forms with d. Residues, ends and D or L forms follow the SMILES beside them. X1 = O=C([C@@H](N[*:1])c1ccc(N=Nc2ccccc2)cc1)[*:2]", "data": [{"smiles": "CC[C@H](C)[C@H](NC(=O)[C@H](CCCCN)NC(C)=O)C(=O)N[C@@H](C)C(=O)N[C@@H](C)C(=O)N[C@@H](CC(C)C)C(=O)N[C@@H](CCCCN)C(=O)N[C@@H](CCC(=O)O)C(=O)N[C@@H](CCCCN)C(=O)N[C@H](C(=O)N[C@@H](C)C(=O)N[C@@H](C)C(=O)N[C@@H](CC(C)C)C(=O)N[C@@H](CCCCN)C(=O)N[C@@H](CCC(=O)O)C(=O)N[C@@H](CCCCN)C(=O)N[C@H](C(=O)N[C@@H](C)C(=O)N[C@@H](C)C(=O)N[C@@H](CC(C)C)C(=O)N[C@@H](CCCCN)C(=O)N[C@@H](CCC(=O)O)C(N)=O)[C@@H](C)CC)c1ccc(N=Nc2ccccc2)cc1", "note": "[K3-APgly] (Ac-KIAALKEK[X1]AALKEKIAALKE-NH2)", "values": [{"measurement": "Kf (folding constant)", "setting": "E3GY; [6]", "result": "2.97 × 10^5 M^–1"}, {"measurement": "Kd", "setting": "E3GY; [6]", "result": 3370, "unit": "nM"}, {"measurement": "Kf (folding constant)", "setting": "E3GY; [7]", "result": "1.38 × 10^6 M^–1"}, {"measurement": "Kd", "setting": "E3GY; [7]", "result": 720, "unit": "nM"}, {"measurement": "dark/340 nm PSS (fold difference in folding constant / binding affinity)", "setting": "E3GY; ratio dark state to 340 nm PSS, 20 °C", "result": 4.65}, {"measurement": "thermal relaxation, times slower than that observed for 10 in MeCN", "setting": "[1]", "result": 1.6}]}, {"smiles": "O=C(N[C@H](C(=O)O)c1ccc(N=Nc2ccccc2)cc1)OCC1c2ccccc2-c2ccccc21", "note": "[compound 10, N-Fmoc-4-(phenylazo)-L-phenylglycine]", "values": [{"measurement": "trans isomer", "setting": "[2]; dissolved in MeCN, kept under dark conditions", "result": "94.2 ± 0.2", "unit": "%"}, {"measurement": "cis isomer", "setting": "[2]; irradiated with 340 nm light, MeCN, 20 °C", "result": "91.3 ± 0.6", "unit": "%"}, {"measurement": "trans isomer", "setting": "[2]; irradiation with 385 nm light, MeCN, 20 °C", "result": "83.2 ± 0.2", "unit": "%"}, {"measurement": "half-life of thermal relaxation cis to trans", "setting": "[3]", "result": 28.17, "unit": "h"}, {"measurement": "half-life of thermal relaxation cis to trans", "setting": "[3]; same value in hours", "result": "≈ 28 h"}]}, {"smiles": "N[C@@H](Cc1ccc(N=Nc2ccc(C(=O)O)cc2)cc1)C(=O)O", "note": "[APhe2]", "values": [{"measurement": "PSS, cis isomer", "setting": "[4]; using a mercury lamp", "result": 81, "unit": "%"}, {"measurement": "reported half-life of thermal relaxation", "setting": "[5]", "result": 35, "unit": "h"}]}, {"smiles": "N[C@@H](Cc1ccc(N=Nc2ccccc2)cc1)C(=O)O", "note": "[APhe1, Phenylazo-phenylalanine]", "values": [{"measurement": "PSS, cis isomer", "setting": "[4]; using a LED light source", "result": 89, "unit": "%"}, {"measurement": "PSS, cis isomer", "setting": "[4]; using a mercury lamp", "result": 79, "unit": "%"}, {"measurement": "reported half-life of thermal relaxation", "setting": "[5]", "result": 26.67, "unit": "h"}]}]}
